From PubChem BioAssay AID1963985 (Molecular Pharmacology Branch, DTP, NCI, 2024)
pIC50: −log10 of the molar value.

System: 252836-082-R-J2-PDC tumor spheroids, viability
Test: Anticancer human tumor 252836-082-R-J2-PDC patient-derived head and neck squamous cell carcinoma cell line growth inhibition [PI3K]
Conditions: spheroids with HUVEC and MSC; for viability, T/C: stronger effect = lower value
Description: Combinatorial screen of targeted agents with the PI3K inhibitors inavolisib, alpelisib, duvelisib, and copanlisib in multi-cell type tumor spheroids
A high-throughput screen of multi-cell type tumor spheroids was designed to identify active combinations of targeted small molecules and PI3K pathway inhibitors. Complex spheroids include a stromal component modeled by human endothelial cells (HUVEC) and fibroblasts modeled by human mesenchymal stem cells (MSCs). The concentration ranges selected for each drug and investigational agent were based upon clinically achievable concentrations if the clinical Cmax of the agent was known.
Compounds. The drugs and investigational agents: inavolisib (NSC800729), alpelisib (NSC765974), duvelisib (NSC772469), copanlisib (NSC816437), ipatasertib (NSC767898), afuresertib (NSC778305), talazoparib (NSC767125), sapanisertib (NSC764658), selumetinib (NSC741078), tovorafenib (DAY101, NSC766906), vemurafenib (NSC761431), ravoxertinib (NSC781343), sotorasib (NSC818433), MRTX1133 (NSC 836407), abemaciclib (NSC 768073), palbociclib (NSC758247), venetoclax (NSC 766270), SY5609 (NSC837396), enzalutamide (NSC755605), and darolutamide (NSC825331), were obtained from the National Cancer Institute (NCI) Developmental Therapeutics Program Chemical Repository. The FDA-approved anticancer drug set is available from the NCI Developmental Therapeutics Program. […] The stock solutions were prepared in dimethyl sulfoxide (DMSO, Sigma-Aldrich, St. Louis, MO, cat. D2650) at 800-fold the tested concentration and stored at -70 degrees C prior to their use. All drugs and investigational agents were tested over a range starting from a high concentration at or near the clinical Cmax and decreasing in half-log increments. If the clinical Cmax for an agent had not been determined, the highest concentration tested was 10 microM.
Cell Culture. All cells were maintained in an incubator at 37 degrees C and 5% CO2 with 95% humidity. The PDC lines were cultured according to standard operating procedures established by the NCI PDMR (https://pdmr.cancer.gov/sops/default.htm). All PDCs were thawed and cultured in Matrigel-coated flasks prepared with a working solution of 1X Ham's F-12 nutrient mix, without supplementation (Invitrogen, Waltham, MA, cat. 11765054), 100 U/mL penicillin-streptomycin (Invitrogen, cat. 15140122), and 2.5% Matrigel (Corning Inc., Corning, NY, cat. 354248) for the first three passages. The 354836-022-R-J1-PDC, 475296-252-R-J1-PDC, and 997726-040-R-J2-PDC lines were cultured in 6A media, which includes advanced DMEM/F-12 (Thermo Fisher Scientific, cat. 12634028), 10 mM HEPES (Thermo Fisher Scientific, cat. 15630080), 1X GlutaMAX supplement (Thermo Fisher Scientific, cat. 35050061), 0.1 mg/mL primocin (InvivoGen, San Diego, CA, cat. ant-pm-2), 10% defined fetal bovine serum, heat inactivated (HyClone Laboratories Inc., Logan, UT, cat. SH30070.03HI), 50% L-WRN conditioned media (ATCC, cat. CRL-3276), 1.25 mM N-Acetyl-L-cysteine (Sigma-Aldrich, cat. A9165), 10 mM nicotinamide (Sigma-Aldrich, cat. N0636), 1X B-27 supplement (Thermo Fisher Scientific, cat. 17504044), 1X N-2 supplement (Thermo Fisher Scientific, cat. 17502048), and 10 microM Y-27632 dihydrochloride (Tocris Bioscience, Bristol, United Kingdom, cat. 1254). The 624824-186-R-J2-PDC line was cultured in 6C/Colon 1B media, which includes all 6A media components plus 50 ng/mL human EGF recombinant protein (Thermo Fisher Scientific, cat. PHG0311). […]
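Also: spheroids exposed to agents for seven days before readout.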
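For viability, T/C in this document: percent of vehicle DMSO control viability so 100% = untreated growth.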

Question: For `C#Cc1c(F)ccc2cc(O)cc(-c3ncc4c(N5CC6CCC(C5)N6)nc(OCC56CCCN5CC(F)C6)nc4c3F)c12` (stereo not given), which viability, T/C (compound 0.0316 µM) is on record?
Answer: 89.5% [middle of 4 runs]

Question: What about the viability, T/C (compound 1 µM) of the same compound?
Answer: 87.9% [middle of 4 runs]

Question: What about the viability, T/C (compound 3.16 µM) of the same compound?
Answer: 83.4% [middle of 4 runs]

Question: What about the viability, T/C (compound 10 µM) of the same compound?
Answer: 67.8% [middle of 4 runs]

Question: What about the pIC50 (curve of compound) of the same compound?
Answer: < 5.00

Question: For `CNC(=O)c1ccc(N2C(=S)N(c3ccc(C#N)c(C(F)(F)F)c3)C(=O)C2(C)C)cc1F`, which viability, T/C (compound 0.1 µM) is on record?
Answer: 92.5% [middle of 4 runs]

Question: And the viability, T/C (compound 0.316 µM)?
Answer: 105% [middle of 4 runs]

Question: What about the viability, T/C (compound 1 µM) of the same compound?
Answer: 96.4% [middle of 4 runs]

Question: And the viability, T/C (compound 3.16 µM)?
Answer: 94.9% [middle of 4 runs]

Question: And the viability, T/C (compound 10 µM)?
Answer: 94.5% [middle of 4 runs]

Question: What about the pIC50 (curve of compound) of the same compound?
Answer: < 5.00

Question: What does the source list for `Cn1ncc(Cl)c1-c1cc(C(=O)NC(CN)Cc2cccc(F)c2)sc1Cl` (stereo not given)?
Answer: viability, T/C (compound 0.0316 µM): 84.6% [middle of 4 runs]; viability, T/C (compound 0.1 µM): 85% [middle of 4 runs]; viability, T/C (compound 0.316 µM): 66.9% [middle of 4 runs]; viability, T/C (compound 1 µM): 42.4% [middle of 4 runs]; viability, T/C (compound 3.16 µM): 30.8% [middle of 4 runs]; viability, T/C (compound 10 µM): 12.7% [middle of 4 runs]; IC50 (curve of compound): 684 nM [middle of 4 runs]

Question: What does the source list for `Cn1cnc2c(F)c(Nc3ccc(Br)cc3Cl)c(C(=O)NOCCO)cc21` + CC(Nc1ccc2c(c1)OCCn1cc(N3C(=O)OCC3C(F)F)nc1-2)C(N)=O?
Answer: pIC50 (curve of first compound, second compound 0.00316 µM): < 5.52; pIC50 (curve of first compound, second compound 0.01 µM): 5.62; pIC50 (curve of first compound, second compound 0.0316 µM): 5.82; pIC50 (curve of first compound, second compound 0.1 µM): 6.25; pIC50 (curve of first compound, second compound 0.316 µM): > 8.02; pIC50 (curve of first compound, second compound 1 µM): > 8.02; viability, T/C (second compound 0.00316 µM, first compound 0.00949 µM): 81.4%; viability, T/C (second compound 0.00316 µM, first compound 0.03 µM): 73.8%; viability, T/C (second compound 0.00316 µM, first compound 0.0949 µM): 86.3%; viability, T/C (second compound 0.00316 µM, first compound 0.3 µM): 79.6%; viability, T/C (second compound 0.00316 µM, first compound 0.949 µM): 72.4%; viability, T/C (second compound 0.00316 µM, first compound 3 µM): 52.1%; viability, T/C (second compound 0.01 µM, first compound 0.00949 µM): 81.7%; viability, T/C (second compound 0.01 µM, first compound 0.03 µM): 71.2%; viability, T/C (second compound 0.01 µM, first compound 0.0949 µM): 78.5%; viability, T/C (second compound 0.01 µM, first compound 0.3 µM): 76.9%; viability, T/C (second compound 0.01 µM, first compound 0.949 µM): 73.8%; viability, T/C (second compound 0.01 µM, first compound 3 µM): 44.5%; viability, T/C (second compound 0.0316 µM, first compound 0.00949 µM): 66.1%; viability, T/C (second compound 0.0316 µM, first compound 0.03 µM): 60.7%; viability, T/C (second compound 0.0316 µM, first compound 0.0949 µM): 77.9%; viability, T/C (second compound 0.0316 µM, first compound 0.3 µM): 65.2%; viability, T/C (second compound 0.0316 µM, first compound 0.949 µM): 55.1%; viability, T/C (second compound 0.0316 µM, first compound 3 µM): 42.4%; viability, T/C (second compound 0.1 µM, first compound 0.00949 µM): 58.9%; viability, T/C (second compound 0.1 µM, first compound 0.03 µM): 54.7%; viability, T/C (second compound 0.1 µM, first compound 0.0949 µM): 58.4%; viability, T/C (second compound 0.1 µM, first compound 0.3 µM): 51.7%; viability, T/C (second compound 0.1 µM, first compound 0.949 µM): 47.8%; viability, T/C (second compound 0.1 µM, first compound 3 µM): 31.4%; viability, T/C (second compound 0.316 µM, first compound 0.00949 µM): 49.9%; viability, T/C (second compound 0.316 µM, first compound 0.03 µM): 47.6%; viability, T/C (second compound 0.316 µM, first compound 0.0949 µM): 47.5%; viability, T/C (second compound 0.316 µM, first compound 0.3 µM): 46.3%; viability, T/C (second compound 0.316 µM, first compound 0.949 µM): 30.8%; viability, T/C (second compound 0.316 µM, first compound 3 µM): 18.2%; viability, T/C (second compound 1 µM, first compound 0.00949 µM): 42.5%; viability, T/C (second compound 1 µM, first compound 0.03 µM): 40%; viability, T/C (second compound 1 µM, first compound 0.0949 µM): 37%; viability, T/C (second compound 1 µM, first compound 0.3 µM): 38%; viability, T/C (second compound 1 µM, first compound 0.949 µM): 29.1%; viability, T/C (second compound 1 µM, first compound 3 µM): 13.3%
